Reference: US9650340B2, “5-fluoro-N-(pyridin-2-yl)pyridin-2-amine derivatives containing a sulfoximine group” (BAYER PHARMA AKTIENGESELLSCHAFT, priority 2012, dated 2017)
Converted amounts (≈) assume the structure as drawn.

Key:
[1] = biological target: human carbonic anhydrase-2 (Homo sapiens, UniProt P00918); experiment: Carbonic anhydrase assay, carbonic anhydrase-2; assay type: biochemical; details: read-out: Inhibition of Carbonic anhydrase-2 IC50
Protocol: (§1) 6. Carbonic Anhydrase Assay
(§2) The principle of the assay is based on the hydrolysis of 4-nitrophenyl acetate by carbonic anhydrases (Pocker & Stone, Biochemistry, 1967, 6, 668), with subsequent photometric determination of the dye product 4-nitrophenolate at 400 nm by means of a 96-channel spectral photometer.
(§3) 2 μL of the test compounds, dissolved in DMSO (100-fold final concentration), in a concentration range of 0.03-10 μmol/L (final), was pipetted as quadruplicates into the wells of a 96-hole microtiter plate. Wells that contained the solvent without test compounds were used as reference values (1. Wells without carbonic anhydrase for correction of the non-enzymatic hydrolysis of the substrate, and 2. Wells with carbonic anhydrase for determining the activity of the non-inhibited enzyme).
(§4) 188 μL of assay buffer (10 mmol/L of Tris/HCl, pH 7.4, 80 mmol/L of NaCl), with or without 3 units/well of carbonic anhydrase-1 [=human carbonic anhydrase-1 (Sigma, #C4396)] in order to determine carbonic anhydrase-1 inhibition or 3 units/well of carbonic anhydrase-2 [=human carbonic anhydrase-2 (Sigma, #C6165)] for measuring carbonic anhydrase-2 inhibition, was pipetted into the wells of the microtiter plate.

[2] = Equilibrium shake flask solubility assay, thermodynamic solubility in water pH 6.5; assay type: physicochemical; details: phosphate buffer pH 6.5, 24 h, room temperature; for solubility at 24 h: phosphate buffer, pH 6.5, aqueous buffer, thermodynamic from solid
Protocol: 4. Equilibrium Shake Flask Solubility Assay:
4a) Thermodynamic Solubility in Water
The thermodynamic solubility of compounds in water was determined by an equilibrium shake flask method (see for example: E. H. Kerns, L. Di: Drug-like Properties: Concepts, Structure Design and Methods, 276-286, Burlington, Mass., Academic Press, 2008). A saturated solution of the drug was prepared and the solution was mixed for 24 h to ensure that equilibrium was reached. The solution was centrifuged to remove the insoluble fraction and the concentration of the compound in solution was determined using a standard calibration curve. To prepare the sample, 2 mg solid compound was weighed in a 4 mL glass vial. 1 mL phosphate buffer pH 6.5 was added. The suspension was stirred for 24 hrs at room temperature. The solution was centrifuged afterwards. To prepare the sample for the standard calibration, 2 mg solid sample was dissolved in 30 mL acetonitrile. After sonification the solution was diluted with water to 50 mL. Sample and standards were quantified by HPLC with UV-detection. For each sample two injection volumes (5 and 50 μl) in triplicates were made. Three injection volumes (5 μl, 10 μl and 20 μl) were made for the standard.
The areas of sample- and standard injections as well as the calculation of the solubility value (in mg/l) were determined by using HPLC software (Waters Empower 2 FR).

Caco-2 permeation assay = assay type: in vitro ADME, human; details: human; for Papp A→B at 2 h, 2 µM / Papp B→A at 2 h, 2 µM: Caco-2, pH 7.2, Caco-2, 2 μM test compound; for Papp A→B at 2 h, 2 µM: apical to basolateral, read-out: Papp A-B (Mari); for Papp B→A at 2 h, 2 µM: basolateral to apical, read-out: Papp B-A (Mari); for efflux ratio at 2 h, 2 µM: Caco-2, pH 7.2, Caco-2, 2 μM, Papp B-A / Papp A-B
Protocol: (§5) 5. Caco-2 Permeation Assay:
(§6) Caco-2 cells (purchased from DSMZ Braunschweig, Germany) were seeded at a density of 4.5×10^4 cells per well on 24 well insert plates, 0.4 μm pore size, and grown for 15 days in DMEM medium supplemented with 10% fetal bovine serum, 1% GlutaMAX (100×, GIBCO), 100 U/mL penicillin, 100 μg/mL streptomycin (GIBCO) and 1% non essential amino acids (100 ×). Cells were maintained at 37° C. in a humified 5% CO2 atmosphere. Medium was changed every 2-3 day. Before running the permeation assay, the culture medium was replaced by a FCS—free hepes-carbonate transport buffer (pH 7.2). For assessment of monolayer integrity the transepithelial electrical resistance (TEER) was measured. Test compounds were predissolved in DMSO and added either to the apical or basolateral compartment in final concentration of 2 μM in transport buffer. Before and after 2 h incubation at 37° C. samples were taken from both compartments. Analysis of compound content was done after precipitation with methanol by LC/MS/MS analysis. Permeability (Papp) was calculated in the apical to basolateral (A→B) and basolateral to apical (B→A) directions. The apparent permeability was calculated using following equation: Papp=(Vr/Po)(1/S)(P2/t)
(§7) Where Vr is the volume of medium in the receiver chamber, Po is the measured peak area or height of the test drug in the donor chamber at t=o, S the surface area of the monolayer, P2 is the measured peak area of the test drug in the acceptor chamber after 2 h of incubation, and t is the incubation time. The efflux ratio basolateral (B) to apical (A) was calculated by dividing the Papp B-A by the Papp A-B. In addition the compound recovery was calculated. The following reference compounds were used for the classification of the permeability class: Antipyrine, Pyrazosin, Verapamil, Fluvastatin, Cimetidine, Ranitidine, Atenolol, Sulfasalazine.

[3] = biological target: T1, human carbonic anhydrase-1 (Homo sapiens, UniProt P00915); experiment: Carbonic anhydrase assay, carbonic anhydrase-1; assay type: biochemical; details: read-out: Inhibition of Carbonic anhydrase-1 IC50
T1 construct: purchased Sigma C4396
Protocol: as §1, §2, §3, §4

Caco-2 cell monolayers = experiment: Caco-2 permeation assay; assay type: in vitro ADME, human; details: for Papp A-B (Mari) / Papp B-A (Mari): Caco-2, 2 μM test compound; for Papp A-B (Mari): apical to basolateral; for Papp B-A (Mari): basolateral to apical
Protocol: as §5, §6, §7

T1 sequence (P00915 whole entry): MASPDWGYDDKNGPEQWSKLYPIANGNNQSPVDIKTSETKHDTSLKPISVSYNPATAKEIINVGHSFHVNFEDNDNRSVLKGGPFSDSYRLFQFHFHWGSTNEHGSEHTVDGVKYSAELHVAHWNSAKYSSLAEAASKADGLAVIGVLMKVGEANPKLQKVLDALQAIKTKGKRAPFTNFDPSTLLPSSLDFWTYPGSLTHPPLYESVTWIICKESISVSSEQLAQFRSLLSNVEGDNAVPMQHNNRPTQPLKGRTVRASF

Row | Papp A→B at 2 h, 2 µM (Caco-2 permeation assay) | Papp B→A at 2 h, 2 µM (Caco-2 permeation assay) | efflux ratio at 2 h, 2 µM (Caco-2 permeation assay) | SMILES | also measured
1 | 14.1 ×10⁻⁶ cm/s | 13.5 ×10⁻⁶ cm/s | 0.96 | COc1cc(F)ccc1-c1cc(Nc2cc(CS(C)(=N)=O)cc(F)n2)ncc1F (racemic) [Example 17, (rac)-5-Fluoro-4-(4-fluoro-2-methoxyphenyl)-N-{6-fluoro-4-[(S-methylsulfonimidoyl)methyl]pyridin-2-yl}pyridin-2-amine] | –
2 | 5.1 ×10⁻⁶ cm/s | 3.3 ×10⁻⁶ cm/s | 0.64 | COc1cc(F)ccc1-c1cc(Nc2cc(CS(C)(=N)=O)cc(C(F)(F)F)n2)ncc1F (racemic) [Example 21, (rac)-5-Fluoro-4-(4-fluoro-2-methoxyphenyl)-N-{4-[(S-methylsulfonimidoyl)methyl]-6-(trifluoromethyl)pyridin-2-yl}pyridin-2-amine] | –
3 | 18.6 ×10⁻⁶ cm/s | 17.2 ×10⁻⁶ cm/s | 0.92 | CCS(=N)(=O)Cc1ccnc(Nc2cc(-c3ccc(F)cc3OC)c(F)cn2)c1 (racemic) [Example 30, (rac)-N-{4-[(S-Ethylsulfonimidoyl)-methyl]pyridin-2-yl}-5-fluoro-4-(4-fluoro-2-methoxyphenyl)pyridin-2-amine] | –
4 | 4.8 ×10⁻⁶ cm/s | 5.3 ×10⁻⁶ cm/s | 1.1 | COc1cc(F)ccc1-c1cc(Nc2cc(CS(C)(=N)=O)cc(C(F)(F)F)n2)ncc1F (single isomer, unassigned; (+)) [Example 22, (+)-5-Fluoro-4-(4-fluoro-2-methoxyphenyl)-N-{4-[(S-methylsulfonimidoyl)methyl]-6-(trifluoromethyl)pyridin-2-yl}pyridin-2-amine] | –

More lines, now with the values behind:

Row | SMILES | Papp A→B at 2 h, 2 µM (Caco-2 permeation assay) | Papp B→A at 2 h, 2 µM (Caco-2 permeation assay) | efflux ratio at 2 h, 2 µM (Caco-2 permeation assay) | also measured
5 | COc1cc(F)ccc1-c1cc(Nc2cc(CS(C)(=N)=O)ccn2)ncc1F (racemic) [Example 1, (rac)-5-Fluoro-4-(4-fluoro-2-methoxyphenyl)-N-{4-[(S-methylsulfonimidoyl)methyl]pyridin-2-yl}pyridin-2-amine] | 15.5 ×10⁻⁶ cm/s | 18 ×10⁻⁶ cm/s | – | IC50 [1]: > 10 µM; solubility at 24 h [2]: 13 µg/mL (≈ 32.1 µM); IC50 [3]: > 10 µM
6 | COc1cc(F)ccc1-c1cc(Nc2cc(CS(C)(=N)=O)cc(C)n2)ncc1F (racemic) [Example 4, (rac)-5-Fluoro-4-(4-fluoro-2-methoxyphenyl)-N-{6-methyl-4-[(S-methylsulfonimidoyl)methyl]pyridin-2-yl}pyridin-2-amine] | 19.6 ×10⁻⁶ cm/s | 14.9 ×10⁻⁶ cm/s | 0.76 | –
7 | COc1cc(F)ccc1-c1cc(Nc2cc(CS(=N)(=O)CCO)ccn2)ncc1F (racemic) [Example 8, (rac)-2-{S-[(2-{[5-Fluoro-4-(4-fluoro-2-methoxyphenyl)pyridin-2-yl]amino}pyridin-4-yl)methyl]sulfonimidoyl}ethanol] | 4.1 ×10⁻⁶ cm/s | 24.6 ×10⁻⁶ cm/s | 6 | –
8 | COc1cc(F)ccc1-c1cc(Nc2cc(CS(C)(=N)=O)ccn2)ncc1F (single isomer, unassigned; (+)) [Example 2, (+)-5-Fluoro-4-(4-fluoro-2-methoxyphenyl)-N-{4-[(S-methylsulfonimidoyl)methyl]pyridin-2-yl}pyridin-2-amine] | 16.6 ×10⁻⁶ cm/s | 18.6 ×10⁻⁶ cm/s | – | solubility at 24 h [2]: 25 µg/mL (≈ 61.8 µM)
9 | COc1cc(F)ccc1-c1cc(Nc2cc(CS(C)(=N)=O)ccn2)ncc1F (single isomer, unassigned; (-)) [Example 3, (−)-5-Fluoro-4-(4-fluoro-2-methoxyphenyl)-N-{4-[(S-methylsulfonimidoyl)methyl]pyridin-2-yl}pyridin-2-amine] | – | – | – | Solubility in water at pH 6.5 [2]: 27 mg/l; Papp A-B (Mari) (Caco-2 cell monolayers): 13.3 ×10⁻⁶ cm/s; Papp B-A (Mari) (Caco-2 cell monolayers): 19.7 ×10⁻⁶ cm/s
10 | COc1cc(F)ccc1-c1cc(Nc2cc(CS(C)(=N)=O)cc(C(F)(F)F)n2)ncc1F (single isomer, unassigned; (-)) [Example 23, (−)-5-Fluoro-4-(4-fluoro-2-methoxyphenyl)-N-{4-[(S-methylsulfonimidoyl)methyl]-6-(trifluoromethyl)pyridin-2-yl}pyridin-2-amine] | – | – | – | Papp A-B (Mari) (Caco-2 cell monolayers): 4.7 ×10⁻⁶ cm/s; Papp B-A (Mari) (Caco-2 cell monolayers): 6.2 ×10⁻⁶ cm/s; Efflux ratio (Caco-2 cell monolayers; Caco-2, 2 μM, Papp B-A / Papp A-B): 1.3
